We go through five compounds from patent publication US20030232409A1, “Immortal porcine cells” (Regents of the University of Minnesota, priority 2002, published 2003).

In test [1] the test system is PEGE primary cells. Put plainly: Short-circuit current (Isc) of cell monolayers in Ussing chambers, primary cells. It is filed as cell-based, porcine. The method, then: (§1) PEGE primary cells, isolated and cultured as previously described (Deachapunya and O'Grady, J. of Physiology, 508 (Part 1), 31-47 (1998)), and PEGE1 cells were used. Transepithelial resistance of cell monolayers was measured using the EVOM epithelial voltohmmeter coupled to Ag/AgCl “chopstick” electrodes (World Precision Instrument, New Haven, Conn.). After 10 days, the confluent culture inserts were mounted in Ussing Chambers, bathed on both sides with standard porcine Ringer solution which was maintained at 37° C., and bubbled with 95% O2 and 5% CO2. Transepithelial potential difference and Isc were measured with the use of voltage-clamp circuitry from JWT Engineering (Overland Park, Kans.). The data from the voltage clamp experiments was digitized, stored and analyzed using Workbench data acquisition software (Kent Scientific Corporation, Litchfield, Conn.) and recorded with a Compaq pentium microcomputer.
(§2) All values are presented as means±SEM. n is the number of monolayers. The differences between control and treatment means were analyzed using a t-test for paired or unpaired means where appropriate. A value of p<0.05 was considered statistically significant.

Another test has as its system PEGE1 cells. Put plainly: Short-circuit current (Isc) of cell monolayers in Ussing chambers, immortalized cells. It is filed as cell-based, porcine. To be noted: for Mean 8 cpt cAMP-stimulated NPPB-sensitive Isc / Mean 8 cpt cAMP-stimulated Isc: n=6. The method, then: as §1, §2
Test [2] has as its system PEGE primary cells. To be noted: serum-containing conditions, Deachapunya and O'Grady 1998; cited from earlier work.

Turning to `NC(=NCc1ccccc1)NC(=O)c1nc(Cl)c(N)nc1N` [benzamil], the “Mean benzamil-sensitive Isc” value is 0.5 μA in the test on PEGE primary cells [1] (passage 4, 5 μM benzamil, n=12); 1.6 μA in the test with PEGE1 cells (passage 19, 5 μM benzamil, n=15); 1.7 μA in the test on PEGE1 cells (passage 44-51, 5 μM benzamil, n=15).

Regarding `COc1ccc2c(c1)c(CC(=O)O)c(C)n2C(=O)c1ccc(Cl)cc1` [indomethecin], the “Mean indomethecin-sensitive Isc” value with PEGE primary cells [1] (passage 4, 10 μM indomethecin, n=12) worked out at 3.4 μA; in the test with PEGE1 cells (passage 19, 10 μM indomethecin, n=15), 5.0 μA; in the test with PEGE1 cells (passage 44-51, 10 μM indomethecin, n=14) it was 0.6 μA.

Take `O=C(O)c1cc([N+](=O)[O-])ccc1NCCCc1ccccc1` [NPPB, 5-nitro-2-(3phenylpropylamino) benzoic acid]: the “Mean PGE2-stimulated NPPB-sensitive Isc” value with PEGE primary cells [1] (passage 4, 100 μM NPPB after 3 μM PGE2, n=5) stood at 24.9 μA; with PEGE1 cells (passage 19, 100 μM NPPB after 3 μM PGE2, n=6), 33.4 μA; in the test on PEGE1 cells (passage 44-51, 100 μM NPPB after 3 μM PGE2, n=5), 12.5 μA. Also, the “Mean 8 cpt cAMP-stimulated NPPB-sensitive Isc” value is recorded as 17.6 μA in the test with PEGE primary cells [1] (passage 4, 100 μM NPPB after 50 μM 8 cpt cAMP, n=6); 24.3 μA in the test on PEGE1 cells (passage 19, 100 μM NPPB after 50 μM 8 cpt cAMP); 14.5 μA in the test on PEGE1 cells (passage 44-51, 100 μM NPPB after 50 μM 8 cpt cAMP). In addition, the “Effect on PGE2- or cAMP-stimulated increase in Isc” value in the test on PEGE primary cells [2] is listed as “blocked”.

Turning to `Nc1ncnc2c1nc(Sc1ccc(Cl)cc1)n2[C@@H]1O[C@@H]2COP(=O)(O)O[C@H]2[C@H]1O` [8 cpt cAMP, 8(4-chlorophenylthiol) cAMP], the “Mean 8 cpt cAMP-stimulated Isc” value with PEGE primary cells [1] (passage 4, 50 μM 8 cpt cAMP, n=6) was determined as 25.9 μA; in the test with PEGE1 cells (passage 19, 50 μM 8 cpt cAMP) it was 33.2 μA; in the test on PEGE1 cells (passage 44-51, 50 μM 8 cpt cAMP), 15.6 μA.

As to `CCCCC[C@H](O)/C=C/[C@H]1[C@H](O)CC(=O)[C@@H]1C/C=C\CCCC(=O)O` [PGE2], the “Mean PGE2-stimulated Isc” value is recorded as 40.3 μA with PEGE primary cells [1] (passage 4, 3 μM PGE2, n=5); 69.0 μA with PEGE1 cells (passage 19, 3 μM PGE2, n=6); 35.0 μA in the test with PEGE1 cells (passage 44-51, 3 μM PGE2, n=5). Also, the “Effect of stimulation on Isc” value with PEGE primary cells [2] was “increase in Isc”.
